Experimental data published in the Kinase Knowledgebase extract (Sharma et al. 2016).

Molecular target: MAPK14;MAPK11;MAPK12 (human) (UniProt Q16539)
Assay: Inhibition of p38 Kinase Activity

Compound	IC50
Cc1ccc(C(=O)Nc2cccc(N(C)C)c2)cc1Nc1nc(N[C@H]2CCNC2)nc(N(C)CC(C)(C)C)n1	< 1 µM
Cc1ccc(C(N)=O)cc1Nc1nc(N[C@H]2CCNC2)nc(N(C)CC23CC4CC(CC(C4)C2)C3)n1	< 1 µM
Cc1cccc(NC(=O)c2ccc(C)c(Nc3nc(N[C@H]4CCNC4)nc(N(C)CC(C)(C)C)n3)c2)c1	< 1 µM
CONC(=O)c1ccc(C)c(Nc2nc(NCc3cccc(F)c3)nc(N(C)CC(C)(C)C)n2)c1	< 1 µM
Cc1ccc(C(N)=O)cc1Nc1nc(N[C@H]2CCN(Cc3ccccc3F)C2)nc(N(C)CC(C)C)n1	< 1 µM
Cc1ccc(C(N)=O)cc1Nc1nc(N[C@@H]2CCN(C(C)C(C)C)C2)nc(N(C)CC(C)(C)C)n1 (stereo not given in full)	< 1 µM
Cc1ccc(C(N)=O)cc1Nc1nc(NCC2(c3ccc(Cl)cc3)CC2)nc(N[C@H]2CCNC2)n1	< 1 µM
Cc1ccc2ncn(-c3nc(F)cc(NCCOC(C)C)n3)c2c1	< 10 µM
Cc1ccc(C(N)=O)cc1Nc1nc(NCC(C)C)nc(N[C@H]2CCNC2)n1	< 1 µM
CONC(=O)c1ccc(C)c(Nc2nc(NCCNC(C)=O)nc(N(C)CC(C)(C)C)n2)c1	< 1 µM
Cc1ccc(C(N)=O)cc1Nc1nc(O)nc(NCC(C)c2ccccc2)n1 (stereo not given)	< 1 µM
C[C@H](CNc1ncnc(Nc2ccc3ncsc3c2)n1)c1ccccc1	< 10 µM
Cc1ccc(C(N)=O)cc1Nc1nc(N[C@H]2CCN(c3ccccc3)C2)nc(N(C)CC(C)(C)C)n1	< 1 µM
CCC(C)(C)c1nc(Nc2cc(C(N)=O)ccc2C)nc(N[C@H]2CCNC2)n1	< 1 µM
CNC(=O)c1ccc(C)c(Nc2nc(NC3CCN(Cc4ccccn4)C3)nc(N(C)CC(C)(C)C)n2)c1 (stereo not given)	< 1 µM
Cc1ccc(CN2CC[C@H](Nc3nc(Nc4cc(C(N)=O)ccc4C)nc(N(C)CC(C)C)n3)C2)c(C)c1	< 1 µM
CCNC(=O)c1ccc(C)c(Nc2nc(N[C@@H]3CCN(C4=CC(=O)CC(C)(C)C4)C3)nc(N(C)CC(C)(C)C)n2)c1	< 1 µM
CC(C)c1nc(NCC(C)c2ccccc2)nc(Nc2ccc3ncsc3c2)n1 (stereo not given)	< 10 µM
CNC(=O)C1CCN(c2nc(NC[C@@H]3CC[C@@H]4C[C@H]3C4(C)C)nc(Nc3ccc4ncsc4c3)n2)CC1	< 10 µM
CCCc1ccc(C(N)=O)cc1Nc1nc(N[C@H]2CCNC2)nc(N(C)CC(C)(C)C)n1	< 1 µM
CNC(=O)c1ccc(C(F)(F)F)c(Nc2nc(N[C@H]3CCNC3)nc(N(C)CC(C)(C)C)n2)c1	< 1 µM
CONC(=O)c1ccc(F)c(Sc2nc(N[C@@H]3CCNC3)nc(N(C)CC(C)(C)C)n2)c1	< 30 µM
Cc1ccc(C(N)=O)cc1Nc1nc(N[C@@H]2CCNC2)nc(OC[C@@H]2CC[C@H]3C[C@H]2C3(C)C)n1	< 1 µM

Compound	IC50
Cc1ccccc1NC(=O)c1ccc(C)c(Nc2nc(N[C@H]3CCNC3)nc(N(C)CC(C)(C)C)n2)c1	< 1 µM
Cc1ccc(C(N)=O)cc1Nc1nc(N[C@H]2CCN(Cc3ccccc3)C2)nc(N(C)CC(C)C)n1	< 1 µM
CN(CC1CCC2CC1C2(C)C)c1nc(Nc2ccc3ncsc3c2)nc(N2CCN(S(C)(=O)=O)CC2)n1 (stereo not given)	< 10 µM
Cc1ccc(C(N)=O)cc1Nc1nc(NC2CCN(Cc3ccccc3)C2)nc(N[C@H]2CCNC2)n1 (stereo not given in full)	< 1 µM
Cc1ccc(C(N)=O)cc1Nc1nc(NCCCn2ccnc2)nc(NC2CCCC2)n1	< 1 µM
Cc1c(Nc2nc(NCC(C)c3ccccc3)nc(N3CCNCC3)n2)ccc2ncsc12 (stereo not given)	< 10 µM
Cc1ccc(C(N)=O)cc1Nc1nc(N[C@H]2CCCNC2)nc(N(C)CC(C)C)n1	< 1 µM
O=S(=O)(Nc1ncccn1)c1ccc(Nc2nc(Cl)nc(NCCc3ccccc3)n2)cc1	< 10 µM
CNC1CCN(c2cc(NCCOC(C)C)nc(-n3cnc4ccccc43)n2)C1 (stereo not given)	< 10 µM
CNCCN(C)c1nc(NC[C@@H](C)c2ccccc2)nc(Nc2ccc3ncsc3c2)n1	< 10 µM
CNC(=O)c1ccc(C)c(Nc2nc(N[C@H]3CCN(C(C)C)C3)nc(N(C)CC(C)(C)C)n2)c1	< 1 µM
Cc1ccc(C(N)=O)cc1Nc1nc(N[C@H]2CCN(Cc3cccc(C#N)c3)C2)nc(N(C)CC(C)C)n1	< 1 µM
Cc1ccc(C(N)=O)cc1Nc1nc(NCC2CCCCC2)nc(N[C@@H]2CCNC2)n1	< 1 µM
Cc1ccc(C(N)=O)cc1Nc1nc(NC2CCNC2)nc(N(C)CC(C)(C)C)n1 (stereo not given)	< 1 µM
COC[C@H]1C[C@@H](Nc2nc(Nc3cc(C(N)=O)ccc3C)nc(N(C)CC(C)(C)C)n2)CN1	< 1 µM
COCCCN1CCC(Nc2nc(Nc3cc(C(N)=O)ccc3C)nc(N(C)CC(C)C)n2)C1 (stereo not given)	< 1 µM
CC(CNc1nc(Nc2ccc3ncsc3c2)nc(N2CCN(C(=O)C3CCOC3)CC2)n1)c1ccccc1 (stereo not given)	< 10 µM
Cc1cccc(CN2CC[C@H](Nc3nc(Nc4cc(C(N)=O)ccc4C)nc(N(C)CC(C)C)n3)C2)c1	< 1 µM
CONC(=O)c1ccc(C)c(Nc2nc(NC(C)c3ccccn3)nc(N(C)CC(C)(C)C)n2)c1 (stereo not given)	< 1 µM
CC(CNc1nc(Nc2ccc3ncsc3c2)nc(N(C)CCCN(C)C(=N)N)n1)c1ccccc1 (stereo not given)	< 10 µM
Cc1ccc(C(N)=O)cc1Nc1nc(N[C@H]2CN[C@@H](CO)C2)nc(N(C)CC(C)(C)C)n1	< 1 µM
Cc1ccc(C(N)=O)cc1Nc1nc(N[C@H]2CCN(Cc3ccc(C(C)(C)C)cc3)C2)nc(N(C)CC(C)C)n1	< 1 µM
Cc1ccc(C(N)=O)cc1Nc1nc(NC2CCCN(C(C)C)C2)nc(N(C)CC(C)C)n1 (stereo not given)	< 1 µM

Compound	IC50
Cc1ccc(C(N)=O)cc1Nc1nc(NC2CCc3ccccc32)nc(N[C@@H]2CCNC2)n1 (stereo not given in full)	< 1 µM
CNC(=O)c1ccc(C)c(Nc2nc(NC3CCN(Cc4ccccc4)C3)nc(N(C)CC(C)C)n2)c1 (stereo not given)	< 1 µM
CC1(C)C2CCC(CNc3nc(Nc4ccc5ncsc5c4)nc(N4CCN(C(=O)CCC(=O)O)CC4)n3)C1C2 (stereo not given)	< 10 µM
c1nc2ccc(Nc3nc(N4CCNCC4)nc(N4CCC5CCCCC5C4)n3)cc2s1 (stereo not given)	< 10 µM
CN(CCN(C)c1nc(NCC2CCC3CC2C3(C)C)nc(Nc2ccc3ncccc3c2)n1)C(=O)CCC(=O)O (stereo not given)	< 10 µM
Cc1ccc2ncn(-c3nc(NCCOC(C)C)cc(N(C)C)n3)c2c1	< 10 µM
Cc1ccccc1NC(=S)N1CCN(c2nc(NCC(C)c3ccccc3)nc(Nc3ccc4ncsc4c3)n2)CC1 (stereo not given)	< 10 µM
Cc1ccc(C(N)=O)cc1Nc1nc(NC2CCN(Cc3ccccn3)C2)nc(N(C)CC(C)C)n1 (stereo not given)	< 1 µM
CONC(=O)c1ccc(C)c(Nc2nc(N)nc(N(C)CC(C)(C)C)n2)c1	< 1 µM
CNc1nc(Nc2ccc3ncsc3c2)nc(N[C@@H](C)C2CCCCC2)n1	< 10 µM
CONC(=O)c1ccc(C)c(Nc2nc(N[C@@H]3CCNC3)nc(N(C)CC(C)C(F)(F)F)n2)c1 (stereo not given in full)	< 1 µM
CCc1ccc(CN2CC[C@@H](Nc3nc(Nc4cc(C(N)=O)ccc4C)nc(N(C)CC(C)C)n3)C2)cc1	< 1 µM
Cc1ccc(C(N)=O)cc1Nc1nc(NCC(C)c2ccc(Cl)cc2)nc(N[C@H]2CCNC2)n1 (stereo not given in full)	< 1 µM
Cc1ccc(-c2nn(C)c(=O)[nH]2)cc1Nc1nc(N[C@@H]2CCNC2)nc(N(C)CC(C)(C)C)n1	< 1 µM
Cc1ccc(C(N)=O)cc1Nc1nc(N[C@H]2CCNC2)nc(N(C)C[C@@H]2CC[C@H]3C[C@H]2C3(C)C)n1	< 1 µM
Cc1ccc(-c2n[nH]c(=O)[nH]2)cc1Nc1nc(N[C@@H]2CCNC2)nc(N(C)CC(C)(C)C)n1	< 1 µM
Cc1ccc(C(N)=O)cc1Nc1nc(NC2CCCC2)nc(NC2CCN(Cc3ccccc3)C2)n1 (stereo not given)	< 1 µM
Cc1cc(Cl)c(C(N)=O)cc1Nc1nc(N[C@H]2CCNC2)nc(N(C)CC(C)(C)C)n1	< 1 µM
Cc1ccc(C(N)=O)cc1Nc1nc(N[C@@H]2CCN(C(C)CC(C)C)C2)nc(N(C)CC(C)C)n1 (stereo not given in full)	< 1 µM
CNc1nc(NCc2ccccc2OC)nc(Nc2ccc3ncsc3c2)n1	< 10 µM
CONC(=O)c1ccc(C)c(Nc2nc(NCCN3CCOCC3)nc(N(C)CC(C)(C)C)n2)c1	< 1 µM
Cc1ccc(C(=O)NC(C)C)cc1Nc1nc(N[C@H]2CCNC2)nc(N(C)CC(C)(C)C)n1	< 1 µM
Cc1c(Nc2nc(Cl)nc(NCC(C)c3ccccc3)n2)ccc2ncsc12 (stereo not given)	< 10 µM

Compound	IC50
CCOCNc1nc(NCC(C)c2ccccc2)nc(Nc2ccc3ncsc3c2)n1 (stereo not given)	< 10 µM
Cc1ccc(C(N)=O)cc1Nc1nc(NCC2CCNCC2)nc(NC(C)C2CCCCC2)n1 (stereo not given)	< 1 µM
Cc1ccc2c(c1)ncn2-c1nc(NCCOC(C)C)cc(N(C)C)n1	< 10 µM
CNC(=O)c1ccc(C)c(Nc2nc(N[C@H]3CCN(Cc4ccccc4)C3)nc(N(C)CC(C)C)n2)c1	< 1 µM
CC(=O)N1CC2CC1CN2c1nc(NCC(C)c2ccccc2)nc(Nc2ccc3ncsc3c2)n1 (stereo not given)	< 10 µM
CONC(=O)c1ccc(C)c(Nc2nc(N[C@H]3CCN(C(C)C)C3)nc(N(C)CC(C)(C)C)n2)c1	< 1 µM
CC(C)CN(C)c1nc(NC2CCN(CC3CCNCC3)C2)nc(NC2CC(C(N)=O)CCC2C)n1 (stereo not given)	< 1 µM
CC1(C)[C@H]2CC[C@H](CNc3nc(Nc4ccc5ncsc5c4)nc(N4CCNCC4)n3)[C@@H]1C2	< 10 µM
CONC(=O)c1ccc(C)c(Sc2nc(N[C@@H]3CCNC3)nc(N(C)CC(C)(C)C)n2)c1	< 30 µM
CNC(=O)c1ccc(C)c(Nc2nc(N[C@H]3CCNC3)nc(N(C)CC3CCCC3)n2)c1	< 1 µM
Cc1ccc(C(N)=O)cc1Nc1nc(N[C@H]2CCN(C3CCC3)C2)nc(N(C)CC(C)(C)C)n1	< 1 µM
Cc1ccc(C(N)=O)cc1Nc1nc(NC2CCCc3ccccc32)nc(N[C@@H]2CCNC2)n1 (stereo not given in full)	< 1 µM
CNC(=O)c1ccc(C)c(Nc2nc(N[C@H]3CCN(Cc4ccccc4OC)C3)nc(N(C)CC(C)C)n2)c1	< 1 µM
Cc1ccc(C(N)=O)cc1Nc1nc(NC2CCN(Cc3ccc(O)cc3)C2)nc(N(C)CC(C)C)n1 (stereo not given)	< 1 µM
Cc1ccc(C(N)=O)cc1Nc1nc(N[C@H]2CCN(Cc3ccncc3)C2)nc(N(C)CC(C)C)n1	< 1 µM
CNCCN(C)c1nc(NCC(C)c2ccccc2)nc(Nc2ccc3nc(C)sc3c2)n1 (stereo not given)	< 10 µM
Cc1ccccc1NC(=S)N(C)CCCN(C)c1nc(NCC(C)c2ccccc2)nc(Nc2ccc3ncsc3c2)n1 (stereo not given)	< 10 µM
CC1(C)[C@@H]2CC[C@@H](CNc3nc(NC4CCNCC4)nc(N4CCc5ccc([N+](=O)[O-])cc54)n3)[C@H]1C2	< 1 µM
CNCCN(C)c1nc(NCC(C)c2ccccc2)nc(Oc2ccc3ncsc3c2)n1 (stereo not given)	< 10 µM
Cc1ccc(C(N)=O)cc1Nc1nc(N[C@H]2CCNC2)cc(N(C)CC(C)(C)C)n1	< 1 µM
Cc1ccc(C(N)=O)cc1Nc1nc(N[C@H]2CCN(Cc3ccc(O)cc3)C2)nc(N(C)CC(C)(C)C)n1	< 1 µM
